According to PubChem BioAssay AID1553 (Sanford-Burnham Center for Chemical Genomics, 2009):
Several values for one entry are separate records, joined by “and”; a condition that tells them apart may be missing. Equal entries are not always repeated. Activity calls are given as the source filed them.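 Rule for the calls: active = compounds graded as giving a low, moderate or strong rise in tritium labelling of cell protein versus solvent control; inactive = the rest.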

System: HeLa cells, 3H-mannose incorporation into glycoproteins
Test: increase in 3H-mannose incorporation into HeLa proteins, late-stage follow-up, orthogonal assay for PMI inhibitor project, HeLa cells (AID 1553);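 note: 1 fold = DMSO treated HeLa control cells; higher fold signals phosphomannose isomerase inhibition routing mannose into glycosylation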
[1] = fold increase, at 25 µM, stronger effect = higher value

Row | Compound | fold increase 3H incorporation (at 100 µM) | fold increase 3H incorporation [1]
1 | CN(C)c1ccc(N=c2ssnc2Cl)cc1 | 1 (inactive) | 0.8
2 | COc1cc(-c2nc(=S)[nH][nH]2)cc(OC)c1OC | 0.8 (inactive) | –
3 | O=c1c2ccccc2sn1-c1cccc(C(F)(F)F)c1 | 0.7 | 1.2
4 | OCc1ccccc1N=c1ssnc1Cl | 0.9 (inactive) | 0.9
5 | Cc1ccc(N=c2ssnc2Cl)cc1[N+](=O)[O-] | 0.2 | 2.1
6 | Cc1ccc(C)c(N2Cc3ccccc3C2=O)c1 | 1.2 (inactive) | 1.1
7 | Oc1ccc(N=c2ssnc2Cl)cc1 | 0.7 (inactive) | 0.8
8 | O=[N+]([O-])c1ccc(N=c2ssnc2Cl)c([N+](=O)[O-])c1 | 1.5 | –
9 | O=C(O)CCn1cc(C=C2C(=O)NC(=S)NC2=O)c(-c2cccc(Br)c2)n1 | 0.8 (inactive) | –
10 | Nc1ccccc1N=c1ssnc1Cl | 0.9 (inactive) | 0.9
11 | Cc1ccc(C)c(-n2sc3ccc(F)cc3c2=O)c1 | 1 | 2.9
12 | Clc1nssc1=Nc1ccccc1 | 1.9 | 1.2
13 | S=c1nc(-c2cccc(Cl)c2)[nH][nH]1 | 1 (inactive) | –
14 | Cc1ccc(N=c2ssnc2Cl)cc1 | 1.6 | 1.1
15 | Cc1ccc(N=c2ssnc2Cl)nc1 | 0 | 1.2
16 | COc1cc(N=c2ssnc2Cl)cc(OC)c1 | 1.9 | 1.1
17 | Clc1ccc(N=c2ssnc2Cl)cc1 | 0.2 (inactive) | 1.1
18 | Cc1ccc(N=c2ssnc2Cl)c([N+](=O)[O-])c1 | 3.2 | 1.5
19 | CCSc1n[nH]c(=S)s1 | 1 (inactive) | 1
20 | O=c1c2ccc(F)cc2sn1-c1cc(Cl)ccc1Cl | 0.8 (inactive) | 1
21 | Cc1ccnc(-n2sc3ccccc3c2=O)n1 | 1 (inactive) | 0.9

Row | Compound | fold increase 3H incorporation (at 100 µM) | fold increase 3H incorporation [1]
22 | O=c1c2ccccc2sn1-c1cccc(I)c1 | 0.7 | 3.4
23 | Clc1cccc(N=c2ssnc2Cl)c1 | 0.4 | 1.7
24 | CN(C)c1cccc(N=c2ssnc2Cl)c1 | 0.2 (inactive) | 0.3
25 | COC(=O)c1cccc(-n2sc3ccccc3c2=O)c1 | 1.7 | 1.5
26 | O=c1c2c([N+](=O)[O-])cc([N+](=O)[O-])cc2sn1-c1ccc(F)cc1 | 0.8 (inactive) | 0.9
27 | O=C1c2ccccc2SC1c1ccccc1 (stereo not given) | 1.7 | 2.1
28 | Clc1nss/c1=N\c1nc2ccccc2s1 | 0.1 (inactive) | 0.7
29 | O=c1c2ccccc2sn1-c1ccc(Cl)cc1 | 0.6 | 3.4
30 | Cc1ccc(C)c(-n2sc3ccccc3c2=O)c1 | 1.5 | 1.4
31 | Cc1cccc(-n2sc3cc(F)ccc3c2=O)c1C | 0.5 | 2.1
32 | COc1ccc2c(=O)n(C3CCCC3)sc2c1 | 0 (inactive) | 0.9
33 | CCOc1ccc(-c2nc(=S)[nH][nH]2)cc1 | 0.7 (inactive) | –
34 | O=c1c2ccccc2sn1-c1nccs1 | 1 (inactive) | 0.9
35 | Cc1ccc(C)n1-c1nc(=S)[nH][nH]1 | 1 (inactive) | –
36 | O=c1c2ccc(O)cc2sn1C1CCCC1 | 0.8 (inactive) | 1.1
37 | COc1cc(N=c2ssnc2Cl)c(OC)cc1Cl | 1.9 | 1.2
38 | O=c1c2ccccc2sn1-c1cccc(Cl)c1 | 0.6 | 3.4
39 | COc1ccc(-c2nc(=S)[nH][nH]2)cc1OC | 0.8 (inactive) | –
40 | O=C(NCc1ccccc1)c1cccc(-n2sc3ccccc3c2=O)c1 | 1.2 (inactive) | 1.2
41 | Clc1nssc1=Nc1ccc(Br)cc1 | 0.5 | 3.6
42 | COc1ccc(OC)c(N=c2ssnc2Cl)c1 | 1.7 | 2.5

Row | Compound | fold increase 3H incorporation (at 100 µM) | fold increase 3H incorporation [1]
43 | FC(F)(F)c1ccc(N=c2ssnc2Cl)cc1 | 0.3 | 1.4
44 | O=C(O)c1ccccc1NS(=O)(=O)c1cccc(-n2sc3ccccc3c2=O)c1 | 0 (inactive) | 0.2
45 | COc1cccc(-n2sc3ccccc3c2=O)c1 | 1.4 | 0.8
46 | CN(C)c1cccc(-n2sc3ccccc3c2=O)c1 | 1.1 (inactive) | 1.3
47 | Cc1c(Cl)cccc1-n1sc2cc([N+](=O)[O-])cc(OCC(F)(F)F)c2c1=O | 1.1 (inactive) | 1.4
48 | Cc1ccc(-n2sc3ccccc3c2=O)cc1S(=O)(=O)N1CCCCC1 | 1.4 | 1.2
49 | Cc1ccc(C)c(-n2sc3cc(F)ccc3c2=O)c1 | 0.6 | 1.4
50 | N#Cc1ccc(N=c2ssnc2Cl)cc1 | 1.1 (inactive) | 1
51 | S=c1nc(C2COc3ccccc3O2)[nH][nH]1 (stereo not given) | 0.8 (inactive) | –
52 | S=c1nc(-c2cccc(Br)c2)[nH][nH]1 | 0.9 (inactive) | –
53 | O=C(O)c1cccc(-n2sc3ccccc3c2=O)c1 | 0.5 (inactive) | 0.5
54 | O=c1c2ccccc2sn1-c1ccc(Cl)c(S(=O)(=O)N2CCOCC2)c1 | 1.2 (inactive) | 1
55 | COc1cc([N+](=O)[O-])ccc1N=c1ssnc1Cl | 1.4 | 1.3
56 | Clc1ccc(N=c2ssnc2Cl)cc1Cl | 0.1 (inactive) | 0.1
57 | Cc1[nH]n(-c2ccccc2)c(=S)c1C=Nc1cccc([N+](=O)[O-])c1 | 0.7 (inactive) | –
58 | O=c1c2ccccc2sn1-c1ccccc1 | 1 | 1.1
59 | O=c1c2c([N+](=O)[O-])cc([N+](=O)[O-])cc2sn1-c1ccccc1F | 0.9 (inactive) | 0.9
60 | O=c1c2ccccc2sn1-c1ccc(F)cc1 | 2.5 | 2.5
61 | Cc1ccc(C=Nn2c(-c3ccncc3)n[nH]c2=S)cc1 | 1 (inactive) | –
62 | Cc1cccc(-n2sc3ccccc3c2=O)c1 | 2.3 | 2
63 | S=c1nc(-c2ccccc2Br)[nH][nH]1 | 0.9 (inactive) | –

Row | Compound | fold increase 3H incorporation (at 100 µM) | fold increase 3H incorporation [1]
64 | Cc1ccc(C)c(-n2[nH]c3ccccc3c2=O)c1 | 0.8 (inactive) | 0.9
65 | O=c1c2ccccc2sn1-c1cc(S(=O)(=O)N2CCOCC2)ccc1N1CCOCC1 | 0.4 (inactive) | 0.8
66 | Cc1ccc(-n2sc3ccccc3c2=O)cc1 | 1 (inactive) and 0.6 (inactive) | 1.1 and 1.2
67 | CN(C)S(=O)(=O)c1cccc(-n2sc3ccccc3c2=O)c1 | 1.1 | 1.1
68 | COc1ccc(-c2nc(=S)[nH][nH]2)cc1 | 0.8 (inactive) | 1
69 | O=c1c2ccccc2sn1-c1ccc2ccccc2c1 | 1.9 | 1.6
70 | O=c1c2ccccc2sn1-c1cc(S(=O)(=O)N2CCOCC2)ccc1N1CCCC1 | 0.7 (inactive) | 0.7
71 | Cc1ccc(N=c2ssnc2Cl)cc1C | 0.8 (inactive) | 0.8
72 | CCc1cc(CC)c(N=c2ssnc2Cl)c(CC)c1 | 0.2 | 0.3
73 | CC(C)(C)c1ccc(N=c2ssnc2Cl)cc1 | 1 (inactive) | 0.7
74 | O=c1c2cc(F)ccc2sn1-c1ccccc1 | 1.6 | 2.3
75 | Clc1nss/c1=N\c1nncs1 | 0.5 (inactive) | 0.9
76 | COc1ccc(N=c2ssnc2Cl)cc1OC | 0.1 (inactive) | 0.3
77 | N#CC1=C2SCN(Cc3ccccc3)CN2C(=O)CC1c1ccc2c(c1)OCO2 (stereo not given) | 1 (inactive) | –
78 | Clc1ccc(Nc2ccccc2N=c2ssnc2Cl)cc1 | 0.4 (inactive) | 0.3
79 | COc1cc(N=c2ssnc2Cl)cc(OC)c1OC | 1.2 (inactive) | 1.1
80 | Clc1nss/c1=N\c1nccs1 | 1 (inactive) | 1.1
81 | O=c1c2ccccc2sn1-c1cccc(S(=O)(=O)Nc2ccc(Cl)cc2)c1 | 0.7 (inactive) | 0.4
82 | O=[N+]([O-])c1ccc(N=c2ssnc2Cl)c2ccccc12 | 0.4 | 0.5
83 | Cc1cccc(N=c2ssnc2Cl)c1 | 0.7 | 1.6
84 | O=c1c2c([N+](=O)[O-])cc([N+](=O)[O-])cc2sn1-c1ccc(F)c(Cl)c1 | 0.7 (inactive) | 0.9
